According to patent US4305940A, “Benzamides with local anaesthetic and antiarrhythmic activity, salts, and method of preparation thereof and pharmaceutical compositions therefrom” (B.B.R. Boehringer Biochemia Robin S.p.A., priority 1979, dated 1981):
Where a name gives a salt, the structure may show the parent alone.

Key:
in vivo = conditions: rat, in vivo, ip; 5 days; hydrochloride salts; range in parentheses; read-out: DL50 i.p.
From the text: (§1) The behavior of the animals has then been followed for a period of five days. The DL50 has been determined according to the method of I. T. Litchfield and F. Wilcoxon, (J. Pharmacol. Exper. Ther., 96, 99, 1949). The compound numbers in Table II correspond to the numbers in Table I.

Swiss rats = test: in vivo; conditions: lidocaine = 1
From the text: as §1

corneal reflux = test: Surface anaesthesia (corneal reflux, conjunctival sac); conditions: for Surface anaesthesia DL50/CE50: analogous to therapeutic index, DL50 i.p.; for Surface anaesthesia CE50: concentration in percent achieving 50% of total responses, pH 7 saline, hydrochloride salts; for Surface anaesthesia activity with respect to lidocaine: lidocaine = 1
Description: (§2) The data reported hereinbelow relate in every instance to the hydrochloride salts of the individual compounds.
The surface anaesthesia has been determined in rabbits according to the method of M. R. A. Change and H. Lobstein (J. Pharmacol. Exper. Ther., 82, 203, 1944). The compounds dissolved in physiological saline solution of pH 7 were injected into the conjunctival sac and the corneal reflux was induced with the brush of Frey six times at intervals of five minutes for a total period of 40 minutes.

[1] = test system: response to skin puncture; test: Anaesthesia by infiltration (subcutaneous, back puncture); format: in vivo, guinea pigs; conditions: for Infiltration anaesthesia DL50/CE50: analogous to therapeutic index, DL50 i.p.; for Infiltration anaesthesia CE50: concentration in percent achieving 50% of total responses, hydrochloride salts; for Infiltration anaesthesia DL50/CE50 relative to lidocaine / Infiltration anaesthesia activity with respect to lidocaine: lidocaine = 1
Description: The anaesthesia by infiltration has been determined in guinea pigs according to the method of E. Bulbring and I. Wajda, (Journal of Pharmacol. Exper. Ther. 85, 78, 1945). In each experiment, four doses of the substance in 0.25 cc of physiological saline solution is injected subcutaneously on the back after removal of hair. After five minutes, each animal is punctured six times at intervals of […].
The test was repeated every five minutes for a period of 30 minutes. The extent of anaesthesia by infiltration was measured quantitatively by determining the sum of the instances in which the animal remained immobile during the thirty minute period on 36 possible blinks.

[2] = test system: reflux of contraction of the lower limbs (lumbar plexus); test: Anaesthesia by conduction (lumbar plexus); format: in vivo, frogs; conditions: for Conduction anaesthesia DL50/t' / Conduction anaesthesia 1/t'max. (c = 1%) with respect to lidocaine: c = 1%; for Conduction anaesthesia DL50/t': DL50 i.p.; for Conduction anaesthesia 1/t'max. (c = 1%) with respect to lidocaine / Conduction anaesthesia DL50/t' relative to lidocaine: lidocaine = 1
From the text: Anaesthesia by conduction has been determined on frogs according to the method of E. Bulbring and I. Wajda (Journal Pharmacol. Exper. Ther., 85, 78, 1945). The compounds dissolved in physiological saline solution are introduced into the cavity obtained by a transversal incision in the abdomen and separating the viscera in order to expose the lumbar plexus. The period of time necessary to eliminate the reflux of contraction of the lower limbs stimulated by immersion of both posterior legs into hydrochloric acid of increasing concentration between 0.05-0.1-0.2 N for a period not in excess of ten seconds, at intervals of one minute is determined. The extent of anaesthesia of conduction has been determined by measuring the period of time required for each compound in three different concentrations, 0.2%-0.5%-1.0% in order to abolish the reflex of contraction with the concentration of hydrochloric acid indicated hereinabove.

[3] = test system: aconitine-induced ventricular arrhythmia; test: Anti-arrhythmic activity, aconitine infusion; format: in vivo, Wistar rats; conditions: 3 min before aconitine 10 mcg/kg/min
Description: as §2
This determination has been made in Wistar rats, anaesthetized with ethylurethane, (1 g/kg i.p.), according to the method of B. Vargaftig and J. L. Coigner (European Journal Pharmacology, 6, 49, 1969). The compounds dissolved in physiological saline solution, are injected intravenously three minutes prior to the infusion of aconitine, (10 mcg/kg/min.). The extent of anti-arrhythmic activity is determined quantitatively by determining the amount of aconitine necessary to induce ventricular arrhythmia.

Structure (SMILES)	LD50 at 120 h (in vivo)	DL50 i.p. relative to lidocaine (Swiss rats)	Surface anaesthesia DL50/CE50 (corneal reflux)	Surface anaesthesia CE50 (corneal reflux)	Surface anaesthesia activity with respect to lidocaine (corneal reflux)	Infiltration anaesthesia DL50/CE50 [1]	Infiltration anaesthesia CE50 [1]	Infiltration anaesthesia DL50/CE50 relative to lidocaine [1]	Infiltration anaesthesia activity with respect to lidocaine [1]	Conduction anaesthesia DL50/t' [2]	Conduction anaesthesia 1/t'max. (c = 1%) with respect to lidocaine [2]	Conduction anaesthesia DL50/t' relative to lidocaine [2]	Aconitine i.v. necessary to induce ventricular arrhythmia ([3]; 12.5 mg/kg i.v.)	Aconitine i.v. necessary to induce ventricular arrhythmia ([3]; 25.0 mg/kg i.v.)	Aconitine i.v. necessary to induce ventricular arrhythmia ([3]; 10.0 mg/kg i.v.)	Aconitine i.v. necessary to induce ventricular arrhythmia ([3]; 40.0 mg/kg i.v.)
Cc1cccc(C)c1NC(=O)c1cccc(CN2CCCCC2)c1 [Compound 8]	205 mg/kg	1.44	73	2.82%	0.82	569	0.36%	3.01	2.08	41	2.2	3.15	–	–	–	–
Cc1cccc(C)c1NC(=O)c1ccc(CN2CCCCC2)cc1 [Compound 9, 2,6-Dimethylanilide of 4-piperidinomethyl-benzoic acid]	210 mg/kg	1.48	109	1.92%	1.20	750	0.28%	3.97	2.67	19	1.0	1.46	–	–	–	–
Cc1cccc(C)c1NC(=O)c1ccccc1CN1CCOCC1 [Compound 10]	230 mg/kg	1.62	34	6.86%	0.34	98	2.34%	0.52	0.32	21	1.0	1.61	–	–	–	–
Cc1cccc(C)c1NC(=O)c1cccc(CN2CCOCC2)c1 [Compound 11]	260 mg/kg	1.83	22	11.90%	0.19	273	0.95%	1.44	0.79	29	1.2	2.15	–	–	–	–
Cc1cccc(C)c1NC(=O)c1ccc(CN2CCOCC2)cc1 [Compound 12]	230 mg/kg	1.62	82	2.82%	0.82	102	2.25%	0.54	0.33	57	2.7	4.46	–	–	–	–
CCN(CC)CC(=O)Nc1c(C)cccc1C [Lidocaine hydrochloride, reference compound]	–	–	–	–	–	–	–	–	–	–	–	–	41 ± 4 µg/kg	54 ± 5 µg/kg	–	–
C=C[C@H]1C[N@@]2CC[C@H]1C[C@@H]2[C@@H](O)c1ccnc2ccc(OC)cc12 [Quinidine sulfate, reference compound]	–	–	–	–	–	–	–	–	–	–	–	–	–	–	50 ± 3 µg/kg	88 ± 11 µg/kg
